Patent US20230123334A1, “AMINO LIPID COMPOUND, PREPARATION METHOD THEREFOR, AND APPLICATION THEREOF” (SHENZHEN SHENXIN BIOTECHNOLOGY CO., LTD., priority 2020, published 2023)

Assays:
[1] = tested on: HEK293 cells; assay: Preliminary screening as mRNA vectors, EGFP mRNA transfection of HEK293 cells; assay type: cell-based; conditions: HEK293 cells, 96-well plates, EGFP mRNA 50 ng per well; percentage of GFP fluorescent cells relative to total number of cells (Hoechst)
Outline: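 HEK293 cells in DMEM plus 10% FBS transfected in 96-well format with 50 ng EGFP mRNA per well; Lipofectamine2000 served as positive control. Read-out is the percentage of GFP-fluorescent cells among total cells, counted by Hoechst nuclear stain.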

[2] = tested on: HEK293 cells; assay: Preliminary screening as DNA vectors, GFP transfection of HEK293 cells; assay type: cell-based; conditions: HEK293 cells; lipid/DOPE liposome with 75 ng plasmid DNA (psin-EGFP-IRES-Puro); number of cells expressing GFP divided by total number of nuclei (Hoechst)
Outline: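 HEK293 cells in DMEM/10% FBS transfected with 75 ng EGFP plasmid per well complexed with amino lipid/DOPE liposomes in pH 5.6 sodium acetate. Hoechst nuclear stain added 20-24 h post-transfection, then cells cultured another 20-24 h. Confocal imaging gives GFP-positive cells as % of total nuclei.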

Compound | Absolute mRNA transfection efficiency in HEK293 cells [1] [%] | Absolute DNA transfection efficiency in HEK293 cells [2] [%]
CCCCCCCCCCCCCNc1nc(NCCCCCCC)nc(NCCN2CCN(C)CC2)n1 [Compound N7N13D5] | 0.9 | 0.9
CCCCCCCCCCCCCNc1nc(NCCCCCCC)nc(NCCCN(C)C)n1 [Compound N7N13D6] | 2.3 | 1.6
CCCCCCCCCCCCCNc1nc(NCCCCCCC)nc(NCCN(CC)CC)n1 [Compound N7N13D7] | 0.0 | 0.1
CCCCCCCCCCCCCNc1nc(NCCCCCCC)nc(NCCCN2CCOCC2)n1 [Compound N7N13D8] | 0.1 | 0.0
CCCCCCCCCCCCCNc1nc(NCCCCCCC)nc(NCCCN2CCN(C)CC2)n1 [Compound N7N13D9] | 0.1 | 1.3
CCCCCCCCCCCCCNc1nc(NCCCCCCC)nc(NCC2CCN(C)CC2)n1 [Compound N7N13D10] | 1.6 | 1.6
CCCCCCCCCCCCCCCNc1nc(NCCCCCCC)nc(NCCN(C)C)n1 [Compound N7N15D1] | 1.3 | 1.0
CCCCCCCCCCCCCCCNc1nc(NCCCCCCC)nc(NCCN2CCOCC2)n1 [Compound N7N15D2] | 0.1 | 0.0
CCCCCCCCCCCCCCCNc1nc(NCCCCCCC)nc(NCCN2CCCC2)n1 [Compound N7N15D3] | 3.8 | 5.2
CCCCCCCCCCCCCCCNc1nc(NCCCCCCC)nc(NCCN2CCCCC2)n1 [Compound N7N15D4] | 0.0 | 0.2
CCCCCCCCCCCCCCCNc1nc(NCCCCCCC)nc(NCCN2CCN(C)CC2)n1 [Compound N7N15D5] | 0.0 | 0.0
CCCCCCCCCCCCCCCNc1nc(NCCCCCCC)nc(NCCCN(C)C)n1 [Compound N7N15D6] | 1.2 | 1.6
CCCCCCCCCCCCCCCNc1nc(NCCCCCCC)nc(NCCN(CC)CC)n1 [Compound N7N15D7] | 0.0 | 0.0
CCCCCCCCCCCCCCCNc1nc(NCCCCCCC)nc(NCCCN2CCOCC2)n1 [Compound N7N15D8] | 0.2 | 0.2
CCCCCCCCCCCCCCCNc1nc(NCCCCCCC)nc(NCCCN2CCN(C)CC2)n1 [Compound N7N15D9] | 0.7 | 0.6
CCCCCCCCCCCCCCCNc1nc(NCCCCCCC)nc(NCC2CCN(C)CC2)n1 [Compound N7N15D10] | 2.5 | 0.6
CCCCCCCCCCCCCCCCNc1nc(NCCCCCCC)nc(NCCN(C)C)n1 [Compound N7N16D1] | 0.5 | 0.9
CCCCCCCCCCCCCCCCNc1nc(NCCCCCCC)nc(NCCN2CCOCC2)n1 [Compound N7N16D2] | 0.1 | 0.0
CCCCCCCCCCCCCCCCNc1nc(NCCCCCCC)nc(NCCN2CCCC2)n1 [Compound N7N16D3] | 1.3 | 2.3

Compound | Absolute mRNA transfection efficiency in HEK293 cells [1] [%] | Absolute DNA transfection efficiency in HEK293 cells [2] [%]
CCCCCCCCCCCCCCCCNc1nc(NCCCCCCC)nc(NCCN2CCCCC2)n1 [Compound N7N16D4] | 0.0 | 0.0
CCCCCCCCCCCCCCCCNc1nc(NCCCCCCC)nc(NCCN2CCN(C)CC2)n1 [Compound N7N16D5] | 0.0 | 0.3
CCCCCCCCCCCCCCCCNc1nc(NCCCCCCC)nc(NCCCN(C)C)n1 [Compound N7N16D6] | 5.0 | 0.6
CCCCCCCCCCCCCCCCNc1nc(NCCCCCCC)nc(NCCN(CC)CC)n1 [Compound N7N16D7] | 0.4 | 0.0
CCCCCCCCCCCCCCCCNc1nc(NCCCCCCC)nc(NCCCN2CCOCC2)n1 [Compound N7N16D8] | 0.0 | 0.1
CCCCCCCCCCCCCCCCNc1nc(NCCCCCCC)nc(NCCCN2CCN(C)CC2)n1 [Compound N7N16D9] | 0.0 | 0.0
CCCCCCCCCCCCCCCCNc1nc(NCCCCCCC)nc(NCC2CCN(C)CC2)n1 [Compound N7N16D10] | 3.1 | 1.8
CCCCCCCCCCCCCCCCCCNc1nc(NCCCCCCC)nc(NCCN(C)C)n1 [Compound N7N18D1] | 2.3 | 1.0
CCCCCCCCCCCCCCCCCCNc1nc(NCCCCCCC)nc(NCCN2CCOCC2)n1 [Compound N7N18D2] | 0.0 | 0.0
CCCCCCCCCCCCCCCCCCNc1nc(NCCCCCCC)nc(NCCN2CCCC2)n1 [Compound N7N18D3] | 0.1 | 5.0
CCCCCCCCCCCCCCCCCCNc1nc(NCCCCCCC)nc(NCCN2CCCCC2)n1 [Compound N7N18D4] | 0.1 | 0.2
CCCCCCCCCCCCCCCCCCNc1nc(NCCCCCCC)nc(NCCN2CCN(C)CC2)n1 [Compound N7N18D5] | 0.1 | 0.7
CCCCCCCCCCCCCCCCCCNc1nc(NCCCCCCC)nc(NCCCN(C)C)n1 [Compound N7N18D6] | 1.1 | 0.7
CCCCCCCCCCCCCCCCCCNc1nc(NCCCCCCC)nc(NCCN(CC)CC)n1 [Compound N7N18D7] | 0.0 | 0.0
CCCCCCCCCCCCCCCCCCNc1nc(NCCCCCCC)nc(NCCCN2CCOCC2)n1 [Compound N7N18D8] | 0.2 | 0.2
CCCCCCCCCCCCCCCCCCNc1nc(NCCCCCCC)nc(NCCCN2CCN(C)CC2)n1 [Compound N7N18D9] | 0.5 | 2.1
CCCCCCCCCCCCCCCCCCNc1nc(NCCCCCCC)nc(NCC2CCN(C)CC2)n1 [Compound N7N18D10] | 73.8 | 15.6
CCCCCCCCNc1nc(NCCCCCCCC)nc(NCCN(C)C)n1 [Compound N8N8D1] | 0.0 | 2.3
